Assays:
[1] = system: ICAM-1/LFA-1-mediated heterotypic T-cell adhesion; assay: Inhibition of ICAM-1/LFA-1-mediated heterotypic T-cell adhesion; assay type: cell-based; conditions: compared with CH7
[2] = system: rat adjuvant arthritis model; assay type: in vivo
[3] = system: rat adjuvant arthritis model; assay: Suppression of RA in rat adjuvant arthritis model; assay type: in vivo
[4] = system: Molt-3 T cells; conditions: read-out: cytotoxicity IC50; LFA-1-expressing Molt-3 T cells; cited from earlier work
[5] = system: KB epithelial cells; conditions: read-out: toxicity IC50; cited from earlier work
[6] = system: ICAM-1/LFA-1-mediated heterotypic T-cell adhesion; conditions: compared with cIBR; cited from earlier work
[7] = 0.05 mg/kg i.v. once a day, Day 14

Question: For cyclo(1,6)PRGGKV [CHK7], which “cell adhesion inhibitory activity” value [1] is on record?
Answer: lower cell adhesion inhibitory activity than the parent CH7

Question: For `CN(Cc1cnc2nc(N)nc(N)c2n1)c1ccc(C(=O)N[C@@H](CCC(=O)O)C(=O)O)cc1` [MTX, Methotrexate], which “spleen histology: pyogranulomatous inflammation” value ([2]; 0.05 mg/kg) is on record?
Answer: multi-focal small areas of pyogranulomatous inflammation

Question: What about the animal body weight ([2]; arthritis animals, 0.05 mg/kg, days 0-14) of the same compound?
Answer: lost weight after day 8

Question: And the “Rat Liver Weight ± SE” value ([2]; arthritis rats, 0.05 mg/kg i.v. once a day, Day 14)?
Answer: 6.1289 ± 0.1451 g

Question: What about the “AUC Paw Ankle Diameter ± SE” value [3, 7] of the same compound?
Answer: 2.388 ± 0.028

Question: And the “Bone Resorption Score ± SE” value [3, 7]?
Answer: 3.1 ± 0.4

Question: And the “Inflammation Score ± SE” value [3, 7]?
Answer: 4.9 ± 0.1

Question: And the “ankle histology: bone resorption” value ([3]; 0.05 mg/kg, day 14, H&E)?
Answer: Moderate bone resorption was present across the physis

Question: What about the “ankle histology: synovitis and periarticular inflammation” value ([3]; 0.05 mg/kg, day 14, H&E) of the same compound?
Answer: severe synovitis (S) and periarticular inflammation

Question: What about the “Paw Weight ± SE” value ([3]; arthritis rats, 0.05 mg/kg i.v. once a day day 0-14, Day 14) of the same compound?
Answer: 3.5790 ± 0.0877 g

Question: What about the IC50 [4] of the same compound?
Answer: 61 nM

Question: What about the IC50 [5] of the same compound?
Answer: 27 nM

Question: For cyclo(1,6)PRGGSV [CH7], which “activity in inhibiting ICAM-1/LFA-1-mediated heterotypic T-cell adhesion” value [6] is on record?
Answer: activity comparable to that of cIBR

From PMC4474090 (Journal of pharmaceutical sciences, 2012)
